This note sets out measurements from ChEMBL document CHEMBL4699645 (2020).

The test system of experiment [1] is Oocyte. The experiment can be described thus: Antagonist activity at rat alpha3beta2 nAChR S168I mutant expressed in Xenopus laevis oocytes assessed as inhibition of Ach-induced response at 10 nM at -70 mV holding potential measured after 5 mins by voltage-clamp assay relative to control. Particulars: filed as antagonist. Type of experiment: cell-based.
The nature of experiment [2]: Antagonist activity at rat alpha3beta2 nAChR S108T mutant expressed in Xenopus laevis oocytes assessed as inhibition of Ach-induced response at -70 mV holding potential measured after 5 mins by voltage-clamp assay. Type of experiment: cell-based. The settings on record: Oocyte.
Experiment [3] is described as follows: Antagonist activity at rat alpha3beta2 nAChR L169M mutant expressed in Xenopus laevis oocytes assessed as inhibition of Ach-induced response at -70 mV holding potential measured after 5 mins by voltage-clamp assay. The class given is cell-based. Particulars: Oocyte.
Experiment [4] addresses T1, Neuronal acetylcholine receptor; alpha3/beta2 (Rattus norvegicus) (UniProt P04757+P12390). The experiment is described as follows: Antagonist activity at rat wild-type alpha3beta2 nAChR expressed in Xenopus laevis oocytes assessed as inhibition of Ach-induced response at 10 nM at -70 mV holding potential measured after 5 mins by voltage-clamp assay relative to control. The class given is cell-based. The settings on record: Oocyte.

The subject of experiment [5] is Oocyte. The experiment is described as follows: Antagonist activity at rat alpha3beta2 nAChR S108T mutant expressed in Xenopus laevis oocytes assessed as inhibition of Ach-induced response at 1 uM at -70 mV holding potential measured after 5 mins by voltage-clamp assay relative to control. Type of experiment: cell-based.
The nature of experiment [6]: Antagonist activity at rat alpha3beta2 nAChR F106V mutant expressed in Xenopus laevis oocytes assessed as inhibition of Ach-induced response at -70 mV holding potential measured after 5 mins by voltage-clamp assay. The class given is cell-based. Particulars: Oocyte.
A short description of experiment [7]: Antagonist activity at rat alpha3beta2 nAChR A110V mutant expressed in Xenopus laevis oocytes assessed as inhibition of Ach-induced response at -70 mV holding potential measured after 5 mins by voltage-clamp assay. Type of experiment: cell-based. The settings on record: Oocyte.
Experiment [8] can be described thus: Antagonist activity at rat alpha3beta2 nAChR V166T mutant expressed in Xenopus laevis oocytes assessed as inhibition of Ach-induced response at -70 mV holding potential measured after 5 mins by voltage-clamp assay. The class given is cell-based. The settings on record: Oocyte.
Experiment [9] relates to Oocyte. The experiment is described as follows: Antagonist activity at rat alpha3beta2 nAChR S113R mutant expressed in Xenopus laevis oocytes assessed as inhibition of Ach-induced response at 10 nM at -70 mV holding potential measured after 5 mins by voltage-clamp assay relative to control. Type of experiment: cell-based. Particulars: filed as antagonist.
The nature of experiment [10]: Antagonist activity at rat alpha3beta2 nAChR Y114S mutant expressed in Xenopus laevis oocytes assessed as inhibition of Ach-induced response at -70 mV holding potential measured after 5 mins by voltage-clamp assay. Particulars: Oocyte. Type of experiment: cell-based.
Experiment [11] concerns the target T1, Neuronal acetylcholine receptor; alpha3/beta2 (Rattus norvegicus). The experiment is described as follows: Antagonist activity at wild type rat alpha3beta2 nAChR expressed in Xenopus laevis oocytes assessed as inhibition of Ach-induced response at 1 uM at -70 mV holding potential measured after 5 mins by voltage-clamp assay relative to control. Particulars: Oocyte, filed as antagonist. Type of experiment: cell-based.

Experiment [12] can be described thus: Antagonist activity at rat alpha3beta2 nAChR D165P mutant expressed in Xenopus laevis oocytes assessed as inhibition of Ach-induced response at -70 mV holding potential measured after 5 mins by voltage-clamp assay. The settings on record: Oocyte. The class given is cell-based.
A short description of experiment [13]: Antagonist activity at rat alpha3beta2 nAChR S113R mutant expressed in Xenopus laevis oocytes assessed as inhibition of Ach-induced response at -70 mV holding potential measured after 5 mins by voltage-clamp assay. Type of experiment: cell-based. The settings on record: Oocyte.
Experiment [14] can be described thus: Displacement of [125I]-alpha-bungarotoxin from Aplysia californica C-terminal His6-tagged N-terminal gp67 signal peptide-tagged acetylcholine receptor binding protein expressed in Hi5 insect cells preincubated for 3 hrs followed by [125I]-alpha-bungarotoxin measured after 5 mins by radioligand binding assay. For orientation: Loss of bound radioactivity is the signal in a displacement assay; it reports binding, not function.

The nature of experiment [15]: Antagonist activity at rat alpha3beta2 nAChR S168I mutant expressed in Xenopus laevis oocytes assessed as inhibition of Ach-induced response at -70 mV holding potential measured after 5 mins by voltage-clamp assay. The class given is cell-based. Particulars: Oocyte.
For experiment [16], the system named is Oocyte. The experiment is described as follows: Antagonist activity at rat alpha3beta2 nAChR F106V mutant expressed in Xenopus laevis oocytes assessed as inhibition of Ach-induced response at 1 uM at -70 mV holding potential measured after 5 mins by voltage-clamp assay relative to control. Particulars: filed as antagonist. The class given is cell-based.
Experiment [17] can be described thus: Antagonist activity at rat alpha3beta2 nAChR D115N mutant expressed in Xenopus laevis oocytes assessed as inhibition of Ach-induced response at -70 mV holding potential measured after 5 mins by voltage-clamp assay. Particulars: Oocyte. Type of experiment: cell-based.
Experiment [18] has as its target T1, Neuronal acetylcholine receptor; alpha3/beta2 (Rattus norvegicus). The experiment is described as follows: Antagonist activity at rat alpha3beta2 nAChR expressed in Xenopus laevis oocytes assessed as inhibition of Ach-induced response at -70 mV holding potential incubated for 5 mins by voltage-clamp assay relative to LvIA IC50. Type of experiment: cell-based. The settings on record: Oocyte.

In experiment [19] the target is Neuronal acetylcholine receptor; alpha3/beta2 (Rattus norvegicus, UniProt P04757+P12390). The experiment can be described thus: Antagonist activity at rat alpha3beta2 nAChR expressed in Xenopus laevis oocytes assessed as inhibition of Ach-induced response at -70 mV holding potential incubated for 5 mins by voltage-clamp assay. The class given is cell-based, Oocyte.
In experiment [20] the target is T1, Neuronal acetylcholine receptor; alpha3/beta2 (Rattus norvegicus). The experiment can be described thus: Antagonist activity at rat alpha3beta2 nAChR expressed in Xenopus laevis oocytes assessed as inhibition of Ach-induced response by measuring recovery of ACh-induced response time at 10 nM with -70 mV holding potential measured after 5 mins voltage-clamp assay. Particulars: Oocyte. The class given is cell-based.

The species named for the next experiment is Rattus norvegicus. The experiment can be described thus: Selectivity index, ratio of IC50 for rat alpha3beta4 nAChR expressed in Xenopus laevis oocytes to IC50 for rat alpha3beta2 nAChR expressed in Xenopus laevis oocytes. The class given is cell-based.
For experiment [21], the target named is Neuronal acetylcholine receptor; alpha3/beta4 (Rattus norvegicus) (UniProt P04757+P12392). The experiment is described as follows: Antagonist activity at rat alpha3beta4 nAChR expressed in Xenopus laevis oocytes assessed as inhibition of Ach-induced response at -70 mV holding potential incubated for 5 mins by voltage-clamp assay relative to LvIA IC50. The class given is cell-based. Particulars: Oocyte.

Experiment [22] addresses Neuronal acetylcholine receptor; alpha3/beta4 (Rattus norvegicus, UniProt P04757+P12392). The experiment is described as follows: Antagonist activity at rat alpha3beta4 nAChR expressed in Xenopus laevis oocytes assessed as inhibition of Ach-induced response at -70 mV holding potential incubated for 5 mins by voltage-clamp assay. Type of experiment: cell-based, Oocyte.
A further experiment has as its system Hi-5. The experiment is described as follows: Displacement of [125I]-alpha-bungarotoxin from Aplysia californica C-terminal His6-tagged N-terminal gp67 signal peptide-tagged acetylcholine receptor binding protein expressed in Hi5 insect cells preincubated for 3 hrs followed by [125I]-alpha-bungarotoxin measured after 5 mins by radioligand binding assay relative to LvIA IC50. The settings on record: time 185.0 min.

Experiment [23] has as its system Oocyte. The experiment can be described thus: Antagonist activity at rat alpha3beta2 nAChR S168I mutant expressed in Xenopus laevis oocytes assessed as inhibition of Ach-induced response by measuring recovery of ACh-induced response time at 10 nM with -70 mV holding potential measured after 5 mins voltage-clamp assay. The class given is cell-based.

Where a SMILES comes first, the peptide text is derived from it. Bridges are numbered along the chain shown (N, C = ends). A value given as a limit tells only on which side of the number the result lay.

Neuronal acetylcholine receptor; alpha3/beta4, sequence (P04757 whole entry): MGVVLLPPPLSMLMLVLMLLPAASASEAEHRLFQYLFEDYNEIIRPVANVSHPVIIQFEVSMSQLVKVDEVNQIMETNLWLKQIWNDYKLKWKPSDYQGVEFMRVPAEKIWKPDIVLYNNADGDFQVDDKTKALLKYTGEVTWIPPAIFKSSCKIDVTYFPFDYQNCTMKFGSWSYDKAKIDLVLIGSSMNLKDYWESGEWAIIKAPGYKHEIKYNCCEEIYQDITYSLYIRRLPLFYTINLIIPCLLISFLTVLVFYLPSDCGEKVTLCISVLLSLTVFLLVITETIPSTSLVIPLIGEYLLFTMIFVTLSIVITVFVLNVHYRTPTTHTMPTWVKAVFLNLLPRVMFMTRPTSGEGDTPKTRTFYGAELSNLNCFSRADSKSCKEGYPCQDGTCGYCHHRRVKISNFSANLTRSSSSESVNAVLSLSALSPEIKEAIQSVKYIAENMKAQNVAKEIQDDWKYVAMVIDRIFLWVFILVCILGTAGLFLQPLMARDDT
Neuronal acetylcholine receptor; alpha3/beta4, sequence (P12392 whole entry): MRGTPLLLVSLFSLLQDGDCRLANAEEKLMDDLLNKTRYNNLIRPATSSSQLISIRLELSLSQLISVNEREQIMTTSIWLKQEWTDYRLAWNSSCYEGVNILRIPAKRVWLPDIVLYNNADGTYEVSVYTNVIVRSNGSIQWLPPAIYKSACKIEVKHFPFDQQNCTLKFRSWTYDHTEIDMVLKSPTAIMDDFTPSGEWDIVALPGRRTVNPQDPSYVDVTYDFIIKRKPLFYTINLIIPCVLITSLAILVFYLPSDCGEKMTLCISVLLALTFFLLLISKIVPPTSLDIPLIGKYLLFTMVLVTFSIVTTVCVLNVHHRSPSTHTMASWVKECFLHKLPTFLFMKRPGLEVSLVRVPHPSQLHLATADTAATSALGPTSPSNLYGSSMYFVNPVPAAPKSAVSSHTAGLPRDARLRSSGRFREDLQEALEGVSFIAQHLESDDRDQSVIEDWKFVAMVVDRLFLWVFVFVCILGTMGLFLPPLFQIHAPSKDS
Neuronal acetylcholine receptor; alpha3/beta2, sequence (P04757 whole entry): as the sequence (P04757 whole entry) above
Neuronal acetylcholine receptor; alpha3/beta2, sequence (P12390 whole entry): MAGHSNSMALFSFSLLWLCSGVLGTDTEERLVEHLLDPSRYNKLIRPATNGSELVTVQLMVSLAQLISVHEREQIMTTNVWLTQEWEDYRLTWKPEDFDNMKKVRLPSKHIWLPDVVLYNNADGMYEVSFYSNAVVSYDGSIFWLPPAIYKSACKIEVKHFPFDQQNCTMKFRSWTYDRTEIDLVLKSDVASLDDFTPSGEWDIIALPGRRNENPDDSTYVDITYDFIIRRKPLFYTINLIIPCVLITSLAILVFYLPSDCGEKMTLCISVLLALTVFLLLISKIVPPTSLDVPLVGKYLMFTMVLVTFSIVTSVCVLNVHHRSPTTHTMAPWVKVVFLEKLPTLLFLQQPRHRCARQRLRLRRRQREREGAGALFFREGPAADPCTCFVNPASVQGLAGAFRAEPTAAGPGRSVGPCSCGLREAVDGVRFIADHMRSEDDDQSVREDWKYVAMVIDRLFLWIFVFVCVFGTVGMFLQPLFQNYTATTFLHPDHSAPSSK

As for `CC[C@H](C)[C@@H]1NC(=O)[C@H](CCC(=O)O)NC(=O)[C@@H]2CCCN2C(=O)[C@H](Cc2cnc[nH]2)NC(=O)[C@H](CC(=O)O)NC(=O)[C@H](C(C)C)NC(=O)[C@H](CC(N)=O)NC(=O)[C@@H]2CSSC[C@H](NC(=O)CN)C(=O)N[C@@H](CSSC[C@@H](C(N)=O)NC1=O)C(=O)N[C@@H](CO)C(=O)N[C@@H](Cc1cnc[nH]1)C(=O)N1CCC[C@H]1C(=O)N[C@@H](C)C(=O)N2`, the inhibition (in general, the relative decrease from the control value, in per cent) with Oocyte [1] is 94.6%; in [4], 28.8%; in the experiment with Oocyte [5] it was 33.4%; in the experiment with Oocyte [9] it was 91.9%; in [11] it was 94.4%; with Oocyte [16], 55%. Moreover, the IC50 (usually the concentration needed to halve the response being measured) in [2] stood at 1660 nM; in [3] it was 29.6 nM; in experiment [6], 401 nM; in experiment [7], 54 nM; in [8], 31.8 nM; in [10] it was 31.3 nM. Further, the IC50 amounted to 16.6 nM in experiment [12]; 4.1 nM in experiment [13]; 2300 nM in experiment [14]; 0.7 nM in experiment [15]; 23.6 nM in experiment [17].
On to `CC[C@H](C)[C@@H]1NC(=O)[C@H](CCC(=O)O)NC(=O)[C@@H]2CCCN2C(=O)[C@H](Cc2cnc[nH]2)NC(=O)[C@H](CC(=O)O)NC(=O)[C@H](C(C)C)NC(=O)[C@H](C)NC(=O)[C@@H]2CSSC[C@H](NC(=O)CN)C(=O)N[C@@H](CSSC[C@@H](C(N)=O)NC1=O)C(=O)N[C@@H](CO)C(=O)N[C@@H](Cc1cnc[nH]1)C(=O)N1CCC[C@H]1C(=O)N[C@@H](C)C(=O)N2` (H-GCCSHPACAVDHPEIC-NH2; disulfide 2-8, 3-16), for which the Ratio IC50 in [18] is 0.13; in the experiment filed under Rattus norvegicus, 2030; in [21], 14.7; with Hi-5, -0.48. Besides, the IC50 came to 2.1 nM in experiment [19], 760 nM in [14], 4270 nM in experiment [22] and 0.66 nM in [15]. Further, the TIME in [20] is 0.0167 h; in the experiment on Oocyte [23], greater than 0.333 h.
For `CC[C@H](C)[C@@H]1NC(=O)[C@H](CCC(=O)O)NC(=O)[C@@H]2CCCN2C(=O)[C@H](Cc2cnc[nH]2)NC(=O)[C@H](CC(=O)O)NC(=O)[C@H](C(C)C)NC(=O)[C@H](CC(N)=O)NC(=O)[C@@H]2CSSC[C@H](NC(=O)[C@H](C)N)C(=O)N[C@@H](CSSC[C@@H](C(N)=O)NC1=O)C(=O)N[C@@H](CO)C(=O)N[C@@H](Cc1cnc[nH]1)C(=O)N1CCC[C@H]1C(=O)N[C@@H](C)C(=O)N2` (H-ACCSHPACNVDHPEIC-NH2; disulfide 2-8, 3-16), the Ratio IC50 amounted to 24 in experiment [18], 2.6 in the experiment listed under Rattus norvegicus, 3.4 in experiment [21] and 0.71 in the experiment with Hi-5. Besides, the results for the IC50 in experiment [19], in experiment [14] and in experiment [22] were 375 nM, 11800 nM and 975 nM, respectively.
For `CC[C@H](C)[C@@H]1NC(=O)[C@H](C)NC(=O)[C@@H]2CCCN2C(=O)[C@H](Cc2cnc[nH]2)NC(=O)[C@H](CC(=O)O)NC(=O)[C@H](C(C)C)NC(=O)[C@H](CC(N)=O)NC(=O)[C@@H]2CSSC[C@H](NC(=O)CN)C(=O)N[C@@H](CSSC[C@@H](C(N)=O)NC1=O)C(=O)N[C@@H](CO)C(=O)N[C@@H](Cc1cnc[nH]1)C(=O)N1CCC[C@H]1C(=O)N[C@@H](C)C(=O)N2` (H-GCCSHPACNVDHPAIC-NH2; disulfide 2-8, 3-16), the Ratio IC50 was 1.9 in [18], 6.2 in the experiment listed under Rattus norvegicus, 0.6 in experiment [21] and -0.48 in the experiment with Hi-5. Moreover, the IC50 in experiment [19] was 29 nM; in experiment [14], 760 nM; in experiment [22] it was 181 nM.
